{
  "source": "patent US20100273748A1",
  "about": "“ANTIMICROBIAL THERAPY” (priority 2006, published 2010)",
  "key": {"CD14": {"tested_on": "CD14", "experiment": "qPCR in differentiated epidermal constructs", "format": "cell-based, human", "conditions": "1,25D3 100 nM", "description": "(§1) Organotypic culture. Epiderm™ human skin-like tissue constructs were obtained from MatTek (Ashland, Mass.) and cultured according to manufacturer's instructions. Skin constructs were cultured in maintenance media (EPI-100-MM, MatTek) and stimulated with Malp-2 (0.1 μg/ml) for 24 hours in the presence of 1,25D3 (100 nM). Skin constructs were cut after stimulation and transferred to Trizol® (Invitrogen, Carlsbad, Calif.) for RNA extraction or immediately frozen in Tissue-Tek® (Sakura, Torrance, Calif.) for immunostaining.\n(§2) Real-time RT-PCR (qPCR). RNA was extracted from cells, epidermal constructs or tissue using Trizol® and 1 μg RNA was reverse transcribed using iScript® (BioRad, Hercules, Calif.). Expression of cathelicidin and GAPDH was analysed by real-time RT-PCR. […] Fold induction relative to the vehicle treated control in in vitro experiments was calculated using the comparative Ct method, where ΔΔCt is ΔCt(stimulant)-ΔCt(vehicle), ΔCt is Ct(gene)-Ct(GAPDH) and Ct is the cycle at which an arbitrary detection threshold is crossed. For quantification of transcript abundance in tissue samples target gene expression was normalized to GAPDH and compared to non-treated or non-injured skin."}, "TLR2 [1]": {"tested_on": "TLR2", "experiment": "qPCR in differentiated epidermal constructs", "format": "cell-based, human", "conditions": "1,25D3 100 nM", "description": "as §1, §2"}, "TLR2 [2]": {"tested_on": "TLR2", "experiment": "Topical treatment of healthy volunteers' skin, TLR2 immunostaining", "format": "in vivo, human", "conditions": "topical 1,25D3 1.0 mM once applied, 4 days, versus vehicle-treated contralateral skin", "description": "(§3) Patients and treatments. Human skin wounds were collected following informed consent by inducing 5 mm full-thickness wounds in volunteers (n=5) under aseptic conditions with local anesthesia as described. At 24 hours after incision, 4 mm punch biopsies were taken from the site of injury and immediately fixed in formalin for immunostaining or frozen in liquid N2 for subsequent RNA isolation. Intact skin from healthy volunteers served as control (n=4). To examine the effects of topical 1,25D3, healthy skin of volunteers (n=7) was treated once topically with 1,25D3 (1.0 mM) and left under occlusion for 4 days. Vehicle treated contralateral skin served as a control. After treatment, skin biopsies were obtained from both sites, fixed in formalin 10% and embedded in paraffin for immunostaining. All treatments and sample acquisitions, including skin biopsies, were approved by the committees on investigations involving human subjects.\n(§4) Immunostaining. […] Nuclei were detected with DAPI. After subsequent washings with PBS slides, were mounted in ProLong Anti-Fade reagent (Molecular Probes, Eugene, Oreg.) and evaluated with an Olympus BX41 microscope (Olympus, Melville, N.Y.). […]\n(§5) NaOH, pH6.0). […] Sections were washed in PBS and detected with biotinylated secondary antibodies (Vector Laboratories, Burlingame, Calif.) and diaminobenzidine substrate (Sigma) per manufacturers' instructions."}, "cathelicidin": {"tested_on": "cathelicidin", "experiment": "Topical treatment of healthy volunteers' skin, cathelicidin expression", "format": "in vivo, human", "conditions": "topical 1,25D3", "description": "as §3, §4, §5"}, "TLR2 [3]": {"tested_on": "TLR2", "experiment": "qPCR of TLR2 mRNA in cultured keratinocytes", "format": "cell-based, human", "conditions": "1,25D3 100 nM, keratinocyte monolayers, 24 hours", "description": "Cell culture and stimuli. Human keratinocytes were grown in serum-free EpiLife® cell culture media (Cascade Biologics; Portland, Oreg.) containing 0.06 mM Ca2+ and 1× EpiLife® defined growth supplement (EDGS) at 37° C. under standard tissue culture conditions. Stock cultures were maintained for up to five passages in this media with the addition of 50 U/mL penicillin and 50 μg/mL streptomycin. HaCaT keratinocytes were cultured in DMEM (Sigma, St. Louis, Mo.) with 10% FCS. Cells at 50-70% confluence were stimulated in fresh medium after preincubation with 1,25(OH)2 vitamin D3 (1,25D3; 0.1-100 nM, 4-24 h; Sigma). Alternatively, NHEK were stimulated in the presence of 1,25D3 (0.1-100 nM). Stimuli included TLR2,6 ligands Malp-2 (0.001-0.5 μg/ml; Alexis Biochemicals, Carlsbad, Calif.), FSL-1 (1-2 μg/ml, Invivogen, San Diego, Calif.) and zymosan (50 μg/ml; Invivogen), as well as flagellin (50 ng/ml; Alexis), LPS (1 μg/ml; Sigma), lipoteichoic acid (LTA; 10 μg/ml; Sigma), 19 kDA lipopeptide (10 μg/ml, a kind gift from S. Krutzik, Division of Dermatology, UCLA), CpG DNA (10 μg/ml; Sigma), Ca2+ (1.7 mM), LPS (1 μg/ml; Sigma), TNFα (20 ng/ml; Chemicon Temecula, Calif.) and TGFβ1 (0.1-1 μg/ml; R&D Systems, Minneapolis, Minn.). A TLR2 blocking antibody (αTLR2; clone TL2.1, 5 μg/ml, eBioscience, San Diego, Calif.) was utilized to investigate the role of TLR2 signaling. Furthermore, keratinocytes were pretreated with a vitamin D receptor antagonist (VDR-antagonist ZK159222 Schering AG; 10^-7M) or the CYP inhibitor itraconazole (ITRA; 10^-7M) before stimulation with TGFβ in the presence of 25OH vitamin D3 (25D3, 10 nM, Sigma).\nReal-time RT-PCR (qPCR). RNA was extracted from cells, epidermal constructs or tissue using Trizol® and 1 μg RNA was reverse transcribed using iScript® (BioRad, Hercules, Calif.). Expression of cathelicidin and GAPDH was analysed by real-time RT-PCR. Predeveloped Taqman® assay probes (ABI, Foster City, Calif.) were used for the analyses of the expression of CYP24A1 (24-hydroxylase), CYP27B1 (1α-hydroxylase), CD14, CD36, TLR1, TLR2, TLR4, TLR6 and murine CD14. All analyses were performed in triplicate from 2-5 independent experiments in an ABI Prism® 7000 Sequence Detection System. Fold induction relative to the vehicle treated control in in vitro experiments was calculated using the comparative Ct method, where ΔΔCt is ΔCt(stimulant)-ΔCt(vehicle), ΔCt is Ct(gene)-Ct(GAPDH) and Ct is the cycle at which an arbitrary detection threshold is crossed. For quantification of transcript abundance in tissue samples target gene expression was normalized to GAPDH and compared to non-treated or non-injured skin."}, "CYP24A1": {"tested_on": "CYP24A1", "experiment": "qPCR of CYP24A1 mRNA in cultured keratinocytes", "format": "cell-based, human", "conditions": "1,25D3 10^−8M, 24 hours", "description": "Cell culture and stimuli. Human keratinocytes were grown in serum-free EpiLife® cell culture media (Cascade Biologics; Portland, Oreg.) containing 0.06 mM Ca2+ and 1× EpiLife® defined growth supplement (EDGS) at 37° C. under standard tissue culture conditions. Stock cultures were maintained for up to five passages in this media with the addition of 50 U/mL penicillin and 50 μg/mL streptomycin. HaCaT keratinocytes were cultured in DMEM (Sigma, St. Louis, Mo.) with 10% FCS. Cells at 50-70% confluence were stimulated in fresh medium after preincubation with 1,25(OH)2 vitamin D3 (1,25D3; 0.1-100 nM, 4-24 h; Sigma). Alternatively, NHEK were stimulated in the presence of 1,25D3 (0.1-100 nM). […]\nas §2, with “RNA was extracted from cells, epidermal constructs or tissue using Trizol® and 1 μg RNA was reverse transcribed using iScript® (BioRad, Hercules, Calif.).” left out"}},
  "data": [
    {"smiles": "C=C1/C(=C\\C=C2/CCC[C@]3(C)[C@@H]([C@H](C)CCCC(C)(C)O)CC[C@@H]23)C[C@@H](O)C[C@@H]1O", "note": "[1,25D3, 1,25(OH)2 vitamin D3]", "values": [
      {"measurement": "CD14 transcript abundance", "setting": "CD14", "result": "show an increase"},
      {"measurement": "TLR2 transcript abundance", "setting": "TLR2 [1]", "result": "show an increase"},
      {"measurement": "TLR2 staining intensity in skin sections", "setting": "TLR2 [2]", "result": "Staining intensity increased"},
      {"measurement": "cathelicidin expression in skin", "setting": "cathelicidin", "result": "increased expression"},
      {"measurement": "TLR2 mRNA expression", "setting": "TLR2 [3]", "result": "increases expression"},
      {"measurement": "CYP24A1 transcript abundance", "setting": "CYP24A1", "result": "strongly upregulated"}
    ]}
  ]
}
